Test results reported in ChEMBL document CHEMBL1201862, “PubChem BioAssay data set” (2004).
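Grown in 96-well plates, cells were treated for 48 hours with each compound at five concentrations. Insufficient inhibition: endpoint recorded as highest concentration tested. GI50 = concentration required for 50% inhibition of growth.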 Active and inactive are the calls of the source. No stated cut-off is given here; in the data, active = GI50 up to about 1.1 µM and inactive = higher.

Columns and labels:
Assay in all cases: NCI-60 cell line screen, 48 h
NCI-H522 = system: NCI-H522
UACC-62 = system: UACC-62
HL-60 = system: HL-60
SNB-19 = system: SNB-19
COLO 205 = system: COLO 205
UACC-257 = system: UACC-257
ACHN = system: ACHN
HT-29 = system: HT-29
SK-MEL-28 = system: SK-MEL-28
NCI-H23 = system: NCI-H23
OVCAR-3 = system: OVCAR-3
OVCAR-4 = system: OVCAR-4
SN12C = system: SN12C
HOP-62 = system: HOP-62
HCT-116 = system: HCT-116
SW-620 = system: SW-620
SK-OV-3 = system: SK-OV-3
MOLT-4 = system: MOLT-4
KM12 = system: KM12
A549 = system: A549

Structure (SMILES) | GI50 (NCI-H522) | GI50 (UACC-62) | GI50 (HL-60) | GI50 (SNB-19) | GI50 (COLO 205) | GI50 (UACC-257) | GI50 (ACHN) | GI50 (HT-29) | GI50 (SK-MEL-28) | GI50 (NCI-H23) | GI50 (OVCAR-3) | GI50 (OVCAR-4) | GI50 (SN12C) | GI50 (HOP-62) | GI50 (HCT-116) | GI50 (SW-620) | GI50 (SK-OV-3) | GI50 (MOLT-4) | GI50 (KM12) | GI50 (A549)
C=C1CC(Cn2cc(C)c(=O)[nH]c2=O)(c2ccc(-c3ccccc3)cc2)OC1=O (centres undefined) | 0.841 µM (active) | 1.76 µM (inactive) | 0.415 µM (active) | 13.8 µM (inactive) | 0.984 µM (active) | 1.44 µM (inactive) | 3.07 µM (inactive) | 0.875 µM (active) | 1.78 µM (inactive) | 1.74 µM (inactive) | 1.21 µM (inactive) | 2.49 µM (inactive) | 2.54 µM (inactive) | 13.1 µM (inactive) | 0.596 µM (active) | 0.546 µM (active) | 6.53 µM (inactive) | 0.964 µM (active) | 2.31 µM (inactive) | 8.49 µM (inactive)
Cn1c(=O)c2c(nc3n2C(CCl)CO3)n(C)c1=O (centres undefined) | > 100 µM (inactive) | > 100 µM (inactive) | > 100 µM (inactive) | > 100 µM (inactive) | > 100 µM (inactive) | > 100 µM (inactive) | > 100 µM (inactive) | > 100 µM (inactive) | > 100 µM (inactive) | > 100 µM (inactive) | > 100 µM (inactive) | > 100 µM (inactive) | > 100 µM (inactive) | > 100 µM (inactive) | > 100 µM (inactive) | > 100 µM (inactive) | > 100 µM (inactive) | > 100 µM (inactive) | > 100 µM (inactive) | –
NS(=O)(=O)c1ccc(NNc2c3ccccc3nc3c(C(=O)Nc4ccc(S(=O)(=O)Nc5ncccn5)cc4)cccc23)cc1 | > 25 µM (inactive) | > 25 µM (inactive) | > 25 µM (inactive) | > 25 µM (inactive) | > 25 µM (inactive) | > 25 µM (inactive) | > 25 µM (inactive) | 10.2 µM (inactive) | 10.1 µM (inactive) | > 25 µM (inactive) | > 25 µM (inactive) | > 25 µM (inactive) | > 25 µM (inactive) | > 25 µM (inactive) | > 25 µM (inactive) | > 25 µM (inactive) | > 25 µM (inactive) | > 25 µM (inactive) | > 25 µM (inactive) | > 25 µM (inactive)
O=C(c1ccccc1)c1nnn(Cc2cccc(Cl)c2)c1C(=O)c1ccccc1 | > 100 µM (inactive) | > 100 µM (inactive) | > 100 µM (inactive) | > 100 µM (inactive) | 15 µM (inactive) | > 100 µM (inactive) | > 100 µM (inactive) | > 100 µM (inactive) | > 100 µM (inactive) | > 100 µM (inactive) | > 100 µM (inactive) | > 100 µM (inactive) | – | > 100 µM (inactive) | > 100 µM (inactive) | > 100 µM (inactive) | 34.8 µM (inactive) | > 100 µM (inactive) | > 100 µM (inactive) | 25.2 µM (inactive)
CO[C@H]1C=CO[C@@]2(C)Oc3c(C)c(O)c4c(O)c(c(CN5CCN(C)CC5)c(O)c4c3C2=O)NC(=O)/C(C)=C\C=C[C@H](C)[C@H](O)C(C)[C@@H](O)C(C)[C@H](OC(C)=O)[C@@H]1C (some centres undefined) | 18.3 µM (inactive) | 34.6 µM (inactive) | 23.1 µM (inactive) | > 100 µM (inactive) | 5.7 µM (inactive) | 21 µM (inactive) | > 75.3 µM (inactive) | 21.6 µM (inactive) | 90.4 µM (inactive) | 14.6 µM (inactive) | 2.88 µM (inactive) | 27.5 µM (inactive) | 30.3 µM (inactive) | 17.7 µM (inactive) | 13.4 µM (inactive) | 13.1 µM (inactive) | > 100 µM (inactive) | 5.87 µM (inactive) | 45.6 µM (inactive) | 39.7 µM (inactive)
Cn1c2ccccc2n2c(=O)c3cc([N+](=O)[O-])ccc3c(C#N)c12 | > 100 µM (inactive) | > 100 µM (inactive) | > 100 µM (inactive) | > 100 µM (inactive) | > 100 µM (inactive) | > 100 µM (inactive) | 75.3 µM (inactive) | > 100 µM (inactive) | > 100 µM (inactive) | > 100 µM (inactive) | > 100 µM (inactive) | 65.6 µM (inactive) | – | 27.5 µM (inactive) | > 100 µM (inactive) | > 100 µM (inactive) | > 100 µM (inactive) | > 100 µM (inactive) | > 100 µM (inactive) | > 100 µM (inactive)
O=c1n(C2CCCCC2)c(=C(Cl)Cl)c(=C(Cl)Cl)n1C1CCCCC1 | > 100 µM (inactive) | > 100 µM (inactive) | 39.6 µM (inactive) | > 100 µM (inactive) | > 100 µM (inactive) | 54.5 µM (inactive) | > 100 µM (inactive) | > 100 µM (inactive) | > 100 µM (inactive) | > 100 µM (inactive) | > 100 µM (inactive) | > 100 µM (inactive) | > 100 µM (inactive) | > 100 µM (inactive) | 85.7 µM (inactive) | > 100 µM (inactive) | > 100 µM (inactive) | > 100 µM (inactive) | > 100 µM (inactive) | > 100 µM (inactive)
COC(=O)C1=C(\O)C[C@@]2(C)CC[C@@H](C(=O)OC)C2C/C=C\1C(=O)OC (some centres undefined) | > 100 µM (inactive) | > 100 µM (inactive) | 49.5 µM (inactive) | > 100 µM (inactive) | > 100 µM (inactive) | 72.8 µM (inactive) | > 100 µM (inactive) | > 100 µM (inactive) | 47 µM (inactive) | – | > 100 µM (inactive) | > 100 µM (inactive) | 24.1 µM (inactive) | > 100 µM (inactive) | 66.1 µM (inactive) | > 100 µM (inactive) | > 100 µM (inactive) | 46.6 µM (inactive) | > 100 µM (inactive) | 87.7 µM (inactive)
CCOC(=O)NC(=O)c1cn(CCCCCCOC(=O)NCCCCCCNC(=O)OCCCCCCn2cc(C(=O)NC(=O)OCC)c(=O)[nH]c2=O)c(=O)[nH]c1=O | > 100 µM (inactive) | > 100 µM (inactive) | > 100 µM (inactive) | > 100 µM (inactive) | > 100 µM (inactive) | > 100 µM (inactive) | > 100 µM (inactive) | > 100 µM (inactive) | > 100 µM (inactive) | – | > 100 µM (inactive) | > 100 µM (inactive) | > 100 µM (inactive) | > 100 µM (inactive) | > 100 µM (inactive) | > 100 µM (inactive) | > 100 µM (inactive) | > 100 µM (inactive) | > 100 µM (inactive) | > 100 µM (inactive)
Nc1ccc(Cn2ccc3c4c(N)nc(N)nc4ccc32)cc1 | 0.0847 µM (active) | < 0.01 µM (active) | < 0.01 µM (active) | 0.3 µM (active) | 0.628 µM (active) | – | < 0.01 µM (active) | < 0.01 µM (active) | 0.128 µM (active) | < 0.01 µM (active) | 0.431 µM (active) | 1.54 µM (inactive) | < 0.0207 µM (active) | 0.0141 µM (active) | < 0.01 µM (active) | < 0.01 µM (active) | 12.3 µM (inactive) | < 0.0122 µM (active) | 0.0321 µM (active) | < 0.01 µM (active)
CCC(C)[C@@H](NC1=C(Cl)C(=O)c2c(O)ccc(O)c2C1=O)C(=O)OC (some centres undefined) | 2.67 µM (inactive) | 3.37 µM (inactive) | 2 µM (inactive) | > 10 µM (inactive) | 2.13 µM (inactive) | 2.18 µM (inactive) | 3.91 µM (inactive) | 3.01 µM (inactive) | – | 2.07 µM (inactive) | 2.79 µM (inactive) | 2.84 µM (inactive) | 3.66 µM (inactive) | 3.51 µM (inactive) | 2.4 µM (inactive) | 4.46 µM (inactive) | 6.68 µM (inactive) | 1.47 µM (inactive) | 3.92 µM (inactive) | 3.89 µM (inactive)
Cc1nc2nnc(CCCCCCCCc3nnc4nc(C)[nH]n34)n2[nH]1 | 60.5 µM (inactive) | – | > 100 µM (inactive) | > 100 µM (inactive) | > 100 µM (inactive) | > 100 µM (inactive) | > 100 µM (inactive) | > 100 µM (inactive) | > 100 µM (inactive) | > 100 µM (inactive) | > 100 µM (inactive) | > 100 µM (inactive) | > 100 µM (inactive) | > 100 µM (inactive) | > 100 µM (inactive) | > 100 µM (inactive) | > 100 µM (inactive) | > 100 µM (inactive) | 66.1 µM (inactive) | > 100 µM (inactive)
O=[N+]([O-])c1ccc(-c2ccc(-c3csc(Nc4ccccn4)n3)o2)cc1 | > 100 µM (inactive) | 29.9 µM (inactive) | > 100 µM (inactive) | 20.2 µM (inactive) | > 100 µM (inactive) | > 100 µM (inactive) | 45.8 µM (inactive) | > 100 µM (inactive) | 95.7 µM (inactive) | > 10 µM (inactive) | > 100 µM (inactive) | 4.76 µM (inactive) | 41.4 µM (inactive) | 31.2 µM (inactive) | 47.9 µM (inactive) | > 100 µM (inactive) | 14.3 µM (inactive) | > 100 µM (inactive) | 49.5 µM (inactive) | –
CN1CCOC1(C)CO (centres undefined) | > 100 µM (inactive) | > 100 µM (inactive) | 50.8 µM (inactive) | > 100 µM (inactive) | > 100 µM (inactive) | > 100 µM (inactive) | > 100 µM (inactive) | > 100 µM (inactive) | – | > 100 µM (inactive) | > 100 µM (inactive) | > 100 µM (inactive) | – | > 100 µM (inactive) | > 100 µM (inactive) | > 100 µM (inactive) | > 100 µM (inactive) | > 100 µM (inactive) | > 100 µM (inactive) | > 100 µM (inactive)
